From PubChem BioAssay AID180 (DTP/NCI, 2004)
“And” between values parts separate entries of the source, which are not always exact repeats. Equal entries are not always repeated.

Test system: BDF1 mice, Adenocarcinoma 755 s.c., tumor weight T/C
Assay: NCI In Vivo Anticancer Drug Screen. Data for tumor model Adenocarcinoma 755 (subcutaneous) in B6D2F1 (BDF1) mice
Conditions: endpoint: mean tumor weight, schedule: Q01DX011 (ip), higher = larger tumour
Method in brief: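 Transplantable tumor implanted; mice dosed with compound or vehicle; survival or tumor size recorded; ratio of treated to vehicle control reported.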

CN(C)N=Nc1ccc(-c2ccc(N=NN(C)C)cc2)cc1 was tested, and the T/C (dose: 17.5 mg/kg/injection, vehicle: other) was 92 % of control, the T/C (dose: 31.2 mg/kg/injection, vehicle: other) was 56 % of control and the T/C (dose: 35.0 mg/kg/injection, vehicle: other) was 72 % of control. For the same compound, the T/C (dose: 50.0 mg/kg/injection, vehicle: water) was 70 % of control, the T/C (dose: 62.5 mg/kg/injection, vehicle: other) was 46 % of control and the T/C (dose: 70.0 mg/kg/injection, vehicle: other) was 75 % of control. The T/C (dose: 100.0 mg/kg/injection, vehicle: water) was 39 % of control, the T/C (dose: 125.0 mg/kg/injection, vehicle: other) was 32 % of control and the T/C (dose: 140.0 mg/kg/injection, vehicle: other) was 40 % of control. For the same compound, the T/C (dose: 150.0 mg/kg/injection, vehicle: water) was 46 % of control and the T/C (dose: 200.0 mg/kg/injection, vehicle: water) was 61 % of control.

O=C1C(=O)C(Cl)=C(Cl)C(Cl)=C1Cl was tested, and the T/C (dose: 7.5 mg/kg/injection, vehicle: carboxymethylcellulose (CMC)) was 78 % of control, the T/C (dose: 15.0 mg/kg/injection, vehicle: carboxymethylcellulose (CMC)) was 90 % of control and the T/C (dose: 60.0 mg/kg/injection, vehicle: carboxymethylcellulose (CMC)) was 97 % of control.

In the case of O=C(Nc1ccc(C2=NCCCN2)cc1)c1ccc(C(=O)Nc2ccc(C3=NCCCN3)cc2)cc1, the T/C (dose: 0.4 mg/kg/injection, vehicle: water) is reported as 103 % of control, the T/C (dose: 0.8 mg/kg/injection, vehicle: water) is reported as 117 % of control and the T/C (dose: 1.6 mg/kg/injection, vehicle: water) is reported as 94 % of control. The T/C (dose: 3.2 mg/kg/injection, vehicle: water) was 97 % of control.

Cn1cnc(N)c(NC=O)c1=O was tested, and the T/C (dose: 25.0 mg/kg/injection, vehicle: carboxymethylcellulose (CMC)) was 98 % of control, the T/C (dose: 75.0 mg/kg/injection, vehicle: carboxymethylcellulose (CMC)) was 113 % of control and the T/C (dose: 225.0 mg/kg/injection, vehicle: carboxymethylcellulose (CMC)) was 115 % of control.

With c1nc(N2CC2)c2cnn(C3CCCCO3)c2n1 (stereo not drawn) the T/C (dose: 1.5 mg/kg/injection, vehicle: other) was 101 % of control, the T/C (dose: 3.0 mg/kg/injection, vehicle: other) was 102 % of control and the T/C (dose: 6.0 mg/kg/injection, vehicle: other) was 81 % of control. For the same compound, the T/C (dose: 12.0 mg/kg/injection, vehicle: other) was 99 % of control, the T/C (dose: 12.5 mg/kg/injection, vehicle: saline) was 30 % of control and the T/C (dose: 25.0 mg/kg/injection, vehicle: other) was 113 % of control. For the same compound, the T/C (dose: 25.0 mg/kg/injection, vehicle: saline) was 45 % of control.

In the case of CCCCn1cnc2c(SC(C)C)nc(N)nc21, the T/C (dose: 1.56 mg/kg/injection, vehicle: methylcellulose (MC)) is reported as 64 % of control, the T/C (dose: 3.12 mg/kg/injection, vehicle: methylcellulose (MC)) is reported as 57 % of control and the T/C (dose: 6.25 mg/kg/injection, vehicle: methylcellulose (MC)) is reported as 14 % of control and 24 % of control. For the same compound, the T/C (dose: 12.5 mg/kg/injection, vehicle: methylcellulose (MC)) was 3 % of control and 8 % of control.

With CC1CN1P(=O)(N1CC2CCC(CC2)C1)N1CC1C (stereo not drawn) the T/C (dose: 7.0 mg/kg/injection, vehicle: saline) was 109 % of control, the T/C (dose: 14.0 mg/kg/injection, vehicle: saline) was 87 % of control and the T/C (dose: 28.0 mg/kg/injection, vehicle: saline) was 87 % of control.

With CC(c1ccccc1)c1nc2c([nH]1)c(=O)n(C)c(=O)n2C (stereo not drawn) the T/C (dose: 40.0 mg/kg/injection, vehicle: methylcellulose (MC)) was 99 % of control, the T/C (dose: 75.0 mg/kg/injection, vehicle: methylcellulose (MC)) was 86 % of control and the T/C (dose: 150.0 mg/kg/injection, vehicle: methylcellulose (MC)) was 72 % of control.
